# The source made the active and inactive calls. The rule behind the calls is not given here.
# Experiments:
# [1] = tested on: Colletotrichum orbiculare; assay: Antifungal activity against Colletotrichum orbiculare infested cucumber plant grown under greenhouse condition assessed as reduction in lesion formation on second leaves at 10 to 500 ug/ml sprayed at two-leaf stage 1 day prior inoculation measured after 6 days post inoculation; assay type: functional, organism-based
# Sclerotinia sclerotiorum = assay: Antimicrobial activity against Sclerotinia sclerotiorum assessed as mycelial growth inhibition after 3 to 5 days; assay type: functional
# Phytophthora capsici = assay: Antimicrobial activity against Phytophthora capsici assessed as mycelial growth inhibition after 3 to 5 days; assay type: functional
# Ralstonia solanacearum = assay: Antimicrobial activity against Ralstonia solanacearum assessed as mycelial growth inhibition after 3 to 5 days; assay type: functional
# Candida albicans = assay: Antimicrobial activity against Candida albicans assessed as mycelial growth inhibition after 3 to 5 days; assay type: functional
# Saccharomyces cerevisiae = assay: Antimicrobial activity against Saccharomyces cerevisiae assessed as mycelial growth inhibition after 3 to 5 days; assay type: functional
# Rhizoctonia solani = assay: Antimicrobial activity against Rhizoctonia solani assessed as mycelial growth inhibition after 3 to 5 days; assay type: functional
# [2] = tested on: Colletotrichum orbiculare; assay: Antifungal activity against Colletotrichum orbiculare infested cucumber plant grown under greenhouse condition assessed as supression of anthracnose development at 500 ug/ml sprayed at two-leaf stage 1 day prior inoculation measured after 6 days post inoculation; assay type: functional, organism-based
# Globisporangium ultimum = assay: Antimicrobial activity against Pythium ultimum assessed as mycelial growth inhibition after 3 to 5 days; assay type: functional
# Pyricularia grisea = assay: Antimicrobial activity against Magnaporthe grisea assessed as mycelial growth inhibition after 3 to 5 days; assay type: functional
# Botrytis cinerea = assay: Antimicrobial activity against Botryotinia fuckeliana assessed as mycelial growth inhibition after 3 to 5 days; assay type: functional
# Bacillus subtilis = assay: Antimicrobial activity against Bacillus subtilis assessed as mycelial growth inhibition after 3 to 5 days; assay type: functional
# Xanthomonas campestris = assay: Antimicrobial activity against Xanthomonas euvesicatoria assessed as mycelial growth inhibition after 3 to 5 days; assay type: functional
# Cladosporium cucumerinum = assay: Antimicrobial activity against Cladosporium cucumerinum assessed as mycelial growth inhibition after 3 to 5 days; assay type: functional
# Ilyonectria destructans = assay: Antimicrobial activity against Ilyonectria radicicola assessed as mycelial growth inhibition after 3 to 5 days; assay type: functional
# [3] = tested on: Colletotrichum orbiculare; assay: Antimicrobial activity against Colletotrichum orbiculare assessed as mycelial growth inhibition after 3 to 5 days; assay type: functional
# [4] = tested on: Fusarium oxysporum f. sp. lycopersici; assay: Antimicrobial activity against Fusarium oxysporum f. sp. lycopersici assessed as mycelial growth inhibition after 3 to 5 days; assay type: functional
# Alternaria mali = assay: Antimicrobial activity against Alternaria mali assessed as mycelial growth inhibition at 100 ug/ml after 3 to 5 days; assay type: functional, organism-based
# [5] = tested on: Colletotrichum orbiculare; assay: Antifungal activity against Colletotrichum orbiculare infested cucumber plant grown under greenhouse condition assessed as reduction in lesion formation on second leaves at 500 ug/ml sprayed at two-leaf stage 1 day prior inoculation measured after 6 days post inoculation; assay type: functional, organism-based
# [6] = tested on: Pectobacterium carotovorum subsp. carotovorum; assay: Antimicrobial activity against Pectobacterium carotovorum subsp. carotovorum assessed as mycelial growth inhibition after 3 to 5 days; assay type: functional
Compound,Activity [1],MIC (Sclerotinia sclerotiorum) [µg/mL],MIC (Phytophthora capsici) [µg/mL],MIC (Ralstonia solanacearum) [µg/mL],MIC (Candida albicans) [µg/mL],MIC (Saccharomyces cerevisiae) [µg/mL],MIC (Rhizoctonia solani) [µg/mL],Activity [2],MIC (Globisporangium ultimum) [µg/mL],MIC (Pyricularia grisea) [µg/mL],MIC (Botrytis cinerea) [µg/mL],MIC (Bacillus subtilis) [µg/mL],MIC (Xanthomonas campestris) [µg/mL],MIC (Cladosporium cucumerinum) [µg/mL],MIC (Ilyonectria destructans) [µg/mL],MIC [3] [µg/mL],MIC [4] [µg/mL],growth inhibition (GI) (Alternaria mali),Activity [5],MIC [6] [µg/mL]
N#Cc1c(Cl)c(Cl)c(Cl)c(C#N)c1Cl,Active,–,–,–,–,–,–,–,–,–,–,–,–,–,–,–,–,–,–,–
C/C=C\c1cc(OC)c(OC)cc1OC [CIS-ASARONE],–,> 100,> 100,50,> 100,> 100,> 100,Active,0.5,30,> 100,50,50,30,> 100,30,> 100,inactive,Active,50

# Source: ChEMBL document CHEMBL3046564, “Antifungal activity of beta-asarone from rhizomes of Acorus gramineus” (2004)
